Assay results reported in patent US20230414509A1, “HYDROPHOBIC DRUGS IN ORGANIC CORE HIGH DENSITY LIPOPROTEIN (HDL) NANOPARTICLES” (NORTHWESTERN UNIVERSITY, priority 2020, published 2023).

Columns and labels:
[1] = tested on: SR-786 cells (anaplastic large cell lymphoma); test: Cytotoxicity IC50, MTS assay, SR-786 cells; format: cell-based; details: 72 hours after treatment, read-out: IC-50 values (in nM), SR-786
Description: (§1) Specifically, the F7-loaded HDL NPs were tested for cytoxicity against two CTCL cell lines (HH and Hut78), a clear cell renal cell carcinoma cell line (786-O), an anaplastic large cell lymphoma (ALCL) cell line (SR-786), a breast adenocarcinoma cell line (MDA MB 231), a T-cell lymphoma cell line (Jurkat), a myeloma cell line (U266B1), and six prostate cancer cell lines (PC-3, Du-145, CWRR1 WT (wild-type), CWRR1 EnzR (Enzalutamide resistant), LnCap WT (wild type), and LnCap EnzR (Enzalutamide resistant)). The HH and HuT78 cell lines are SR-B1 positive and express p38γ. The SR-786, 786-O, and MDA MB 231 cell lines are also known to be SR-B1 positive. […] The PC-3 and Du-145 cell lines are SR-B1 positive, androgen receptor negative and PTEN null. The CWRR1 WT cell line is SR-B1 positive, androgen receptor positive and PTEN wild type. The CWRR1 EnzR, which is also SR-B1 positive, androgen receptor positive and PTEN wild type, is a prostate cancer cell line derived from patient with castration recurrent disease that is resistant to enzalutamide (a commonly used therapy for castration-resistant prostate cancer patients). The LnCap WT cell line is SR-B1 positive, androgen receptor positive and PTEN null. The LnCap EnzR, which is also SR-B1 positive, androgen receptor positive and PTEN null, is a prostate cancer cell line derived from a lymph node metastasis that is resistant to enzalutamide. […]

[2] = tested on: PC-3 cells (prostate cancer); test: Cytotoxicity IC50, MTS assay, PC-3 cells; format: cell-based; details: Homo sapiens, 72 hours after treatment, read-out: IC-50 values (in nM), PC-3
Description: as §1

[3] = tested on: U266B1 cell line (SR-B1 negative); test: 2 hr pulse treatment, MTS viability, SR-B1 negative U266B1 cell line; format: cell-based; details: free F7 250 nM or 2.5 μM for 2 hrs, washed, 72 hours, MTS assay
Description: (§2) Following treatment, the cells were washed with fresh media and plated into 96-well plates. The cells were then incubated for 72 hours prior to viability assay (MTS assay).

[4] = tested on: LnCap EnzR cells (prostate cancer, Enzalutamide resistant); test: Cytotoxicity IC50, MTS assay, LnCap EnzR cells; format: cell-based; details: Homo sapiens, 72 hours after treatment, read-out: IC-50 values (in nM), LnCap EnzR
Description: as §1

[5] = tested on: HH cells (cutaneous T cell lymphoma); test: Cytotoxicity IC50, MTS assay, HH cells; format: cell-based; details: Homo sapiens, 72 hours after treatment, read-out: IC-50 values (in nM), HH
Description: as §1

U266B1 cells (myeloma) = test: Cytotoxicity IC50, MTS assay, U266B1 cells; format: cell-based; details: U266B1 cells (SR-B1 negative), 72 hours after treatment, read-out: IC-50 values (in nM), U266B1
Description: as §1

[6] = tested on: CWRR1 WT cells (prostate cancer); test: Cytotoxicity IC50, MTS assay, CWRR1 WT cells; format: cell-based; details: 72 hours after treatment, read-out: IC-50 values (in nM), CWRR1 WT
Description: as §1

HepG2 cells = test: Cell-based toxicity screen, HepG2 cells, MTS viability; details: F7 1 μM for 2 hrs, washed, 72 hours, MTS assay
[7] = tested on: MDA MB 231 cells (breast adenocarcinoma); test: Cytotoxicity IC50, MTS assay, MDA MB 231 cells; format: cell-based; details: Homo sapiens, 72 hours after treatment, read-out: IC-50 values (in nM), MDA MB 231
Description: as §1

Hut78 cells = test: Cytotoxic impact of F7 on Hut78 cells (screening); format: cell-based; details: Homo sapiens
Excerpt: Cutaneous T cell lymphoma (CTCL) is a disfiguring and aggressive cancer. For patients with advanced disease, current therapies are inadequate, and outcome is poor. Incomplete understanding of CTCL molecular regulators has limited development of effective targeted therapies. One candidate regulator is p38gamma (p38γ), a mitogen-activated protein kinase downstream from the T cell receptor that is crucial for T cell activity and growth. […] In addition, only p38γ has been identified as essential protein for CTCL growth among the four p38 isoforms by gene knockdown experiments, which makes p38γ an ideal target for the therapeutic drug development in this particular T cell lymphoma.

[8] = tested on: Jurkat cells (T-cell lymphoma); test: Cytotoxicity IC50, MTS assay, Jurkat cells; format: cell-based; details: Homo sapiens, Jurkat cells (SR-B1 negative), 72 hours after treatment, read-out: IC-50 values (in nM), Jurkat
Description: as §1

780 cells (renal cancer) = test: Cytotoxicity IC50 in renal cancer cell line 780; format: cell-based
Description: (§3) A database analysis was performed and a survival curve for the renal cancer was found showing a separation (p=0.000084) among summarized 877 renal cancer patients by p38γ gene expression level (high vs low). […] All 8 renal cancer cell lines have higher p38γ protein expression level than that of normal HK2 renal cells by western blot experiments (FIG. 3B).

[9] = tested on: HuT78 cells (cutaneous T cell lymphoma); test: Cytotoxicity IC50, MTS assay, HuT78 cells; format: cell-based; details: Homo sapiens, 72 hours after treatment, read-out: IC-50 values (in nM), HuT78
Description: as §1

[10] = tested on: HH cell line (SR-B1 positive); test: 2 hr pulse treatment, MTS viability, SR-B1 positive HH cell line; format: cell-based; details: free F7 250 nM or 2.5 μM for 2 hrs, washed, 72 hours, MTS assay
Description: as §2

[11] = tested on: CWRR1 EnzR cells (prostate cancer, Enzalutamide resistant); test: Cytotoxicity IC50, MTS assay, CWRR1 EnzR cells; format: cell-based; details: 72 hours after treatment, read-out: IC-50 values (in nM), CWRR1 EnzR
Description: as §1

[12] = tested on: 786-O cells (clear cell renal cell carcinoma); test: Cytotoxicity IC50, MTS assay, 786-O cells; format: cell-based; details: Homo sapiens, 786-0, 72 hours after treatment, read-out: IC-50 values (in nM), 786-O
Description: as §1

[13] = tested on: ACHN cells (renal cancer); test: Cytotoxicity IC50 in renal cancer cell line ACHN; format: cell-based; details: Homo sapiens
Description: as §3

[14] = tested on: Du-145 cells (prostate cancer); test: Cytotoxicity IC50, MTS assay, Du-145 cells; format: cell-based; details: Homo sapiens, 72 hours after treatment, read-out: IC-50 values (in nM), Du-145
Description: as §1

[15] = tested on: LnCap WT cells (prostate cancer); test: Cytotoxicity IC50, MTS assay, LnCap WT cells; format: cell-based; details: Homo sapiens, 72 hours after treatment, read-out: IC-50 values (in nM), LnCap WT
Description: as §1

Cc1ccc([N+](=O)[O-])cc1S(=O)(=O)N(C)/N=C/c1cnc2ccc(Br)cn12.Cl [F7, PIK75]
IC50 [1]: 12.6 nM
IC50 [2]: 28.1 nM
cytotoxicity, U266B1 cell line, free F7 [3]: unable to cause cytotoxicity
IC50 [4]: 75.5 nM
IC50 [5]: 41.3 nM
IC50 (U266B1 cells (myeloma)): 44.1 nM
IC50 [6]: 15.9 nM
cytotoxicity, HepG2 cells, free F7 (HepG2 cells): mild levels of cytotoxicity
IC50 [7]: 688 nM
IC50 (Hut78 cells): 33 nM
IC50 [8]: 116 nM
IC50 (780 cells (renal cancer)): 33 nM
IC50 [9]: 45.6 nM
cytotoxicity, HH cell line, free F7 [10]: unable to cause cytotoxicity
IC50 [11]: 24.7 nM
IC50 [12]: 283 nM
IC50 [13]: 17 nM
IC50 [14]: 84.7 nM
IC50 [15]: 53 nM
